Data from patent US20240025906A1 (NEURON23, INC., priority 2022, published 2024).
Values belong to the compound of their own block, whether it stands above or below them.

Tests used:
[1] = tested on: JAK1/TYK2 pSTAT5 (Tyr694/699) in THP-1 cell line; test: IFNa-stimulated JAK1/TYK2 pSTAT5 (Tyr694/699) inhibition cellular assay, AlphaLISA; format: cell-based; conditions: Homo sapiens; THP-1 cells, IFNa-stimulated, AlphaLISA (Assay B); read-out: Cellular_THP1_IFNa-pSTATS_TYK2
Method in brief: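 The readout is AlphaLISA signal at 615 nm for phospho-STAT5 in THP-1 lysates after IFNa stimulation (added at 100 ng/mL, 30 min, 37 °C). Cells had compound for 1 h beforehand across eight 6-fold concentrations up to 10000 nM final. IC50s are 4PL fits with bottom and Hill slope constrained.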

[2] = biological target: T1, TYK2 JH2 (Homo sapiens, UniProt P29597); test: TYK2 JH2 binding assay (KINOMEscan KdELECT competitive binding); conditions: TYK2 JH2 domain, KINOMEscan KdELECT (Assay A); read-out: Biochemical TYK2_DiscoverX_JH2_BND_Kd
T1 construct: purchased DiscoverX (KINOMEscan KdELECT service); host or cells: E. coli BL21-derived (T7 phage display) or HEK-293
T1 sequence (P29597 589-875 limits assumed): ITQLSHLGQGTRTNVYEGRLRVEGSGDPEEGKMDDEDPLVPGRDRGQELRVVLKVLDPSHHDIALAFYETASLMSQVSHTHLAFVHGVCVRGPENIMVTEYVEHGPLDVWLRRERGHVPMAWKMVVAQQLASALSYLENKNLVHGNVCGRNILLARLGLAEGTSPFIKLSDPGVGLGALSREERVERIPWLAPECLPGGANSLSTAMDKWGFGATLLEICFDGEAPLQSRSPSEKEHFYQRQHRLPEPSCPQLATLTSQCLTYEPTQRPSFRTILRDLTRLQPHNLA
Method in brief: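 Kd values come from qPCR measurement of kinase retained on an immobilized-ligand resin after 1 h room-temperature competition with compound in an 11-point, 3-fold series.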

SMILES: CNc1ncc(C#Cc2ccc3nnn(C)c3c2)c2cc(NC(=O)C3CC3)ncc12 [Example 595, N-(5-((1-methyl-1H-benzo[d][1,2,3]triazol-6-yl)ethynyl)-8-(methylamino)-2,7-naphthyridin-3-yl)cyclopropanecarboxamide]
IC50 [1]: ≤ 500 nM
Kd [2]: ≤ 100 nM

SMILES: CNc1ncc(C#Cc2ccn(C)n2)c2cc(NC(=O)C3CC3)ncc12 [Example 596, N-(5-((1-methyl-1H-pyrazol-3-yl)ethynyl)-8-(methylamino)-2,7-naphthyridin-3-yl)cyclopropanecarboxamide]
IC50 [1]: ≤ 500 nM
Kd [2]: ≤ 100 nM

SMILES: CNc1ncc(C#Cc2ncn(C)n2)c2cc(NC(=O)C3CC3)ncc12 [Example 597, N-(5-((1-methyl-1H-1,2,4-triazol-3-yl)ethynyl)-8-(methylamino)-2,7-naphthyridin-3-yl)cyclopropanecarboxamide]
IC50 [1]: ≤ 500 nM
Kd [2]: ≤ 100 nM

SMILES: CNc1ncc(C#Cc2nc3ccccn3n2)c2cc(NC(=O)C3CC3)ncc12 [Example 598, N-(5-([1,2,4]triazolo[1,5-a]pyridin-2-ylethynyl)-8-(methylamino)-2,7-naphthyridin-3-yl)cyclopropanecarboxamide]
IC50 [1]: ≤ 500 nM
Kd [2]: ≤ 100 nM

SMILES: CNc1ncc(C#Cc2ccncn2)c2cc(NC(=O)C3CC3)ncc12 [Example 599, N-(8-(methylamino)-5-(pyrimidin-4-ylethynyl)-2,7-naphthyridin-3-yl)cyclopropanecarboxamide]
IC50 [1]: ≤ 500 nM
Kd [2]: ≤ 100 nM

SMILES: CNc1ncc(C#Cc2cnco2)c2cc(NC(=O)C3CC3)ncc12 [Example 600, N-(8-(methylamino)-5-(oxazol-5-ylethynyl)-2,7-naphthyridin-3-yl)cyclopropanecarboxamide]
IC50 [1]: ≤ 500 nM
Kd [2]: ≤ 100 nM

SMILES: CNc1ncc(C#Cc2ccnc(C)c2)c2cc(NC(=O)C3CC3)ncc12 [Example 601, N-(8-(methylamino)-5-((2-methylpyridin-4-yl)ethynyl)-2,7-naphthyridin-3-yl)cyclopropanecarboxamide]
IC50 [1]: ≤ 500 nM
Kd [2]: ≤ 100 nM

SMILES: CNc1ncc(C#Cc2ccn3cnnc3c2)c2cc(NC(=O)C3CC3)ncc12 [Example 607, N-(5-([1,2,4]triazolo[4,3-a]pyridin-7-ylethynyl)-8-(methylamino)-2,7-naphthyridin-3-yl)cyclopropanecarboxamide]
IC50 [1]: ≤ 500 nM
Kd [2]: ≤ 100 nM

SMILES: CNc1ncc(C#Cc2ccc(O)c(C#N)c2)c2cc(NC(=O)C3CC3)ncc12 [Example 608, N-(5-((3-cyano-4-hydroxyphenyl)ethynyl)-8-(methylamino)-2,7-naphthyridin-3-yl)cyclopropanecarboxamide]
IC50 [1]: ≤ 500 nM
Kd [2]: ≤ 100 nM

SMILES: CNc1ncc(C#Cc2ccn3ncnc3c2)c2cc(NC(=O)C3CC3)ncc12 [Example 609, N-(5-([1,2,4]triazolo[1,5-a]pyridin-7-ylethynyl)-8-(methylamino)-2,7-naphthyridin-3-yl)cyclopropanecarboxamide]
IC50 [1]: ≤ 500 nM
Kd [2]: ≤ 100 nM

SMILES: CNc1ncc(C#Cc2ccc(S(C)(=O)=O)cc2)c2cc(NC(=O)C3CC3)ncc12 [Example 610, N-(8-(methylamino)-5-((4-(methylsulfonyl)phenyl)ethynyl)-2,7-naphthyridin-3-yl)cyclopropanecarboxamide]
IC50 [1]: ≤ 500 nM
Kd [2]: ≤ 100 nM

SMILES: CNc1ncc(C#Cc2cnc3cccnn23)c2cc(NC(=O)C3CC3)ncc12 [Example 611, N-(5-(imidazo[1,2-b]pyridazin-3-ylethynyl)-8-(methylamino)-2,7-naphthyridin-3-yl)cyclopropanecarboxamide]
IC50 [1]: ≤ 500 nM
Kd [2]: ≤ 100 nM

SMILES: CNc1ncc(C#Cc2ccncc2OC)c2cc(NC(=O)C3CC3)ncc12 [Example 612, N-(5-((3-methoxypyridin-4-yl)ethynyl)-8-(methylamino)-2,7-naphthyridin-3-yl)cyclopropanecarboxamide]
IC50 [1]: ≤ 500 nM
Kd [2]: ≤ 100 nM

SMILES: CNc1ncc(C#Cc2ccc(OC)cn2)c2cc(NC(=O)C3CC3)ncc12 [Example 613]
IC50 [1]: ≤ 500 nM
Kd [2]: ≤ 100 nM

SMILES: CNc1ncc(C#Cc2ccc3c(c2)n(C)c(=O)n3C)c2cc(NC(=O)C3CC3)ncc12 [Example 614, N-(5-((1,3-dimethyl-2-oxo-2,3-dihydro-1H-benzo[d]imidazol-5-yl)ethynyl)-8-(methylamino)-2,7-naphthyridin-3-yl)cyclopropanecarboxamide]
IC50 [1]: ≤ 500 nM
Kd [2]: ≤ 100 nM

SMILES: CNc1ncc(C#Cc2ccn3c(C)nnc3c2)c2cc(NC(=O)C3CC3)ncc12 [Example 615, N-(5-((3-methyl-[1,2,4]triazolo[4,3-a]pyridin-7-yl)ethynyl)-8-(methylamino)-2,7-naphthyridin-3-yl)cyclopropanecarboxamide]
IC50 [1]: ≤ 500 nM
Kd [2]: ≤ 100 nM

SMILES: CNc1ncc(C#Cc2ccc3ncn(C)c3c2)c2cc(NC(=O)C3CC3)ncc12 [Example 616, N-(5-((1-methyl-1H-benzo[d]imidazol-6-yl)ethynyl)-8-(methylamino)-2,7-naphthyridin-3-yl)cyclopropanecarboxamide]
IC50 [1]: ≤ 500 nM
Kd [2]: ≤ 100 nM

SMILES: CNc1ncc(C#Cc2ccc3cnn(C)c3c2)c2cc(NC(=O)C3CC3)ncc12 [Example 617]
IC50 [1]: ≤ 500 nM
Kd [2]: ≤ 100 nM

SMILES: CNc1ncc(C#Cc2ccc3c(c2)nnn3C)c2cc(NC(=O)C3CC3)ncc12 [Example 618, N-(5-((1-methyl-1H-benzo[d][1,2,3]triazol-5-yl)ethynyl)-8-(methylamino)-2,7-naphthyridin-3-yl)cyclopropanecarboxamide]
IC50 [1]: ≤ 500 nM
Kd [2]: ≤ 100 nM

SMILES: CNc1ncc(C#Cc2cn3ccccc3n2)c2cc(NC(=O)C3CC3)ncc12 [Example 619, N-(5-(imidazo[1,2-a]pyridin-2-ylethynyl)-8-(methylamino)-2,7-naphthyridin-3-yl)cyclopropanecarboxamide]
IC50 [1]: ≤ 500 nM
Kd [2]: ≤ 100 nM

Results, then the compound that gave them:

IC50 [1]: ≤ 500 nM
Kd [2]: ≤ 100 nM
SMILES: CNc1ncc(C#Cc2ccc3ncccc3c2)c2cc(NC(=O)C3CC3)ncc12 [Example 620, N-(8-(methylamino)-5-(quinolin-6-ylethynyl)-2,7-naphthyridin-3-yl)cyclopropanecarboxamide]

IC50 [1]: ≤ 500 nM
Kd [2]: ≤ 100 nM
SMILES: CNc1ncc(C#Cc2ccnc(C(F)F)c2)c2cc(NC(=O)C3CC3)ncc12 [Example 621, N-(5-((2-(difluoromethyl)pyridin-4-yl)ethynyl)-8-(methylamino)-2,7-naphthyridin-3-yl)cyclopropanecarboxamide]

IC50 [1]: ≤ 500 nM
Kd [2]: ≤ 100 nM
SMILES: CNc1ncc(C#Cc2ccc3ocnc3c2)c2cc(NC(=O)C3CC3)ncc12 [Example 622, N-(5-(benzo[d]oxazol-5-ylethynyl)-8-(methylamino)-2,7-naphthyridin-3-yl)cyclopropanecarboxamide]

IC50 [1]: ≤ 500 nM
Kd [2]: ≤ 100 nM
SMILES: CNc1ncc(C#Cc2ccnc(C(F)(F)F)c2)c2cc(NC(=O)C3CC3)ncc12 [Example 623, N-(8-(methylamino)-5-((2-(trifluoromethyl)pyridin-4-yl)ethynyl)-2,7-naphthyridin-3-yl)cyclopropanecarboxamide]

IC50 [1]: ≤ 500 nM
Kd [2]: ≤ 100 nM
SMILES: CNc1ncc(C#Cc2ccc(N3CCOCC3)cc2)c2cc(NC(=O)C3CC3)ncc12 [Example 624, N-(8-(methylamino)-5-((4-morpholinophenyl)ethynyl)-2,7-naphthyridin-3-yl)cyclopropanecarboxamide]

IC50 [1]: ≤ 500 nM
Kd [2]: ≤ 100 nM
SMILES: CNc1ncc(C#Cc2ccc3ncn(C4CC4)c3c2)c2cc(NC(=O)C3CC3)ncc12 [Example 625, N-(5-((1-cyclopropyl-1H-benzo[d]imidazol-6-yl)ethynyl)-8-(methylamino)-2,7-naphthyridin-3-yl)cyclopropanecarboxamide]

IC50 [1]: ≤ 500 nM
Kd [2]: ≤ 100 nM
SMILES: CNc1ncc(C#Cc2ccn3ccnc3c2)c2cc(NC(=O)C3CC3)ncc12 [Example 626, N-(5-(imidazo[1,2-a]pyridin-7-ylethynyl)-8-(methylamino)-2,7-naphthyridin-3-yl)cyclopropanecarboxamide]

IC50 [1]: ≤ 500 nM
Kd [2]: ≤ 100 nM
SMILES: CNc1ncc(C#Cc2ccc3nccnc3c2)c2cc(NC(=O)C3CC3)ncc12 [Example 627, N-(8-(methylamino)-5-(quinoxalin-6-ylethynyl)-2,7-naphthyridin-3-yl)cyclopropanecarboxamide]

IC50 [1]: ≤ 500 nM
Kd [2]: ≤ 100 nM
SMILES: CNc1ncc(C#Cc2ccc3nc(C)sc3c2)c2cc(NC(=O)C3CC3)ncc12 [Example 628, N-(8-(methylamino)-5-((2-methylbenzo[d]thiazol-6-yl)ethynyl)-2,7-naphthyridin-3-yl)cyclopropanecarboxamide]

IC50 [1]: ≤ 500 nM
Kd [2]: ≤ 100 nM
SMILES: CNc1ncc(C#Cc2cccc(OC)c2)c2cc(NC(=O)C3CC3)ncc12 [Example 629, N-(5-((3-methoxyphenyl)ethynyl)-8-(methylamino)-2,7-naphthyridin-3-yl)cyclopropanecarboxamide]

IC50 [1]: ≤ 500 nM
Kd [2]: ≤ 100 nM
SMILES: CNc1ncc(C#Cc2ccccc2OC)c2cc(NC(=O)C3CC3)ncc12 [Example 630, N-(5-((2-methoxyphenyl)ethynyl)-8-(methylamino)-2,7-naphthyridin-3-yl)cyclopropanecarboxamide]

IC50 [1]: ≤ 500 nM
Kd [2]: ≤ 100 nM
SMILES: CNc1ncc(C#Cc2ccc(OC)nc2)c2cc(NC(=O)C3CC3)ncc12 [Example 631, N-(5-((6-methoxypyridin-3-yl)ethynyl)-8-(methylamino)-2,7-naphthyridin-3-yl)cyclopropanecarboxamide]
